# Measurements as given in US12728177B2, “Disinfectant composition with rapid antiviral efficacy” (priority 2015, dated 2026).
# Counter-ions that a name gives are not always drawn.
# Tested on: Bacteriophage Phi X174 (ATCC 13706-81)
# Experiment: Virucidal infectivity (percent reduction in virus infectivity, E. coli outgrowth with resazurin dye);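 also: exposed phage diluted into broth, E. coli outgrowth followed 16-24 h at 37 °C by fluorescence rate, unexposed phage set as 100% signal, phage-free as 0%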
# Settings: 10-minute exposure
# [1] = secondary agent 3 mM + Maleic Acid 3 mM
# [2] = secondary agent 3 mM + Phosphonc Acid 50-150 mM
# [3] = secondary agent 3 mM + Sulfosuccinic Acid 10-32 mM
# Method: Bacteriophage Phi X174 (ATCC 13706-81) was added 1:10 (−108 plaque forming units (PFU) per sample) into a solution containing the composition of interest. Following a 10-minute exposure, the sample was transferred 1:10 into Tryptic Soy Broth (TSB). Following 10 minutes in TSB, a second 1:10 dilution was completed into an outgrowth solution for the Phi X174 host (E. coli ATCC 13706) that contained TSB and a resazurin dye. E. coli outgrowth was then monitored at 37° C. for 16-24 hours and the rate of fluorescence development was calculated. The rate observed when Phi X174 was not exposed to any composition represented a 100% Phi X174 signal. The rate observed without Phi X174 present represented a “0% signal.” The rate obtained following Phi X174 exposure to a given composition was compared to the signal obtained with no exposure to calculate the “percent reduction in virus infectivity.”
structure (smiles),measurement,setting,value
N=C(N)NN [Aminoguanidine Hydrochloride],"% Reduction, Secondary Antiviral Agent Alone",agent alone 6 mM,2%
same,"% Reduction, Secondary Antiviral Agent Alone",agent alone 18 mM,7%
same,"% Reduction, Secondary Antiviral Agent Alone",agent alone 53 mM,4%
same,"% Reduction, Secondary Antiviral Agent Alone",agent alone 158 mM,1%
same,"reduction in virus infectivity, in Combination with Maleic Acid (3 mM)",[1],12%
same,"reduction in virus infectivity, in Combination with Phosphonc Acid (50-150 mM)",[2],50%
same,"reduction in virus infectivity, in Combination with Sulfosuccinic Acid (10-32 mM)",[3],0%
same,"reduction in virus infectivity, in Combination with Maleic Acid (3 mM)",secondary agent 9 mM + Maleic Acid 3 mM,4%
same,"reduction in virus infectivity, in Combination with Phosphonc Acid (50-150 mM)",secondary agent 9 mM + Phosphonc Acid 50-150 mM,86%
same,"reduction in virus infectivity, in Combination with Sulfosuccinic Acid (10-32 mM)",secondary agent 9 mM + Sulfosuccinic Acid 10-32 mM,0%
same,"reduction in virus infectivity, in Combination with Maleic Acid (3 mM)",secondary agent 28 mM + Maleic Acid 3 mM,0%
same,"reduction in virus infectivity, in Combination with Phosphonc Acid (50-150 mM)",secondary agent 28 mM + Phosphonc Acid 50-150 mM,50%
same,"reduction in virus infectivity, in Combination with Sulfosuccinic Acid (10-32 mM)",secondary agent 28 mM + Sulfosuccinic Acid 10-32 mM,4%
same,"reduction in virus infectivity, in Combination with Maleic Acid (3 mM)",secondary agent 85 mM + Maleic Acid 3 mM,0%
same,"reduction in virus infectivity, in Combination with Phosphonc Acid (50-150 mM)",secondary agent 85 mM + Phosphonc Acid 50-150 mM,99%
same,"reduction in virus infectivity, in Combination with Sulfosuccinic Acid (10-32 mM)",secondary agent 85 mM + Sulfosuccinic Acid 10-32 mM,13%
[Cl][Cu][Cl] [Copper (II) Chionde],"% Reduction, Secondary Antiviral Agent Alone",agent alone 1 mM,20%
same,"% Reduction, Secondary Antiviral Agent Alone",agent alone 4 mM,18%
same,"% Reduction, Secondary Antiviral Agent Alone",agent alone 9 mM,23%
same,"% Reduction, Secondary Antiviral Agent Alone",agent alone 27 mM,99%
same,"reduction in virus infectivity, in Combination with Maleic Acid (3 mM)",secondary agent 26 mM + Maleic Acid 3 mM,70%
same,"reduction in virus infectivity, in Combination with Phosphonc Acid (50-150 mM)",secondary agent 26 mM + Phosphonc Acid 50-150 mM,99%
same,"reduction in virus infectivity, in Combination with Sulfosuccinic Acid (10-32 mM)",secondary agent 26 mM + Sulfosuccinic Acid 10-32 mM,99%
same,"reduction in virus infectivity, in Combination with Maleic Acid (3 mM)",secondary agent 1-3 mM + Maleic Acid 3 mM,72%
same,"reduction in virus infectivity, in Combination with Phosphonc Acid (50-150 mM)",secondary agent 1-3 mM + Phosphonc Acid 50-150 mM,44%
same,"reduction in virus infectivity, in Combination with Sulfosuccinic Acid (10-32 mM)",secondary agent 1-3 mM + Sulfosuccinic Acid 10-32 mM,94%
same,"reduction in virus infectivity, in Combination with Maleic Acid (3 mM)",secondary agent 4-6 mM + Maleic Acid 3 mM,57%
same,"reduction in virus infectivity, in Combination with Phosphonc Acid (50-150 mM)",secondary agent 4-6 mM + Phosphonc Acid 50-150 mM,87%
same,"reduction in virus infectivity, in Combination with Sulfosuccinic Acid (10-32 mM)",secondary agent 4-6 mM + Sulfosuccinic Acid 10-32 mM,96%
same,"reduction in virus infectivity, in Combination with Maleic Acid (3 mM)",secondary agent 11-13 mM + Maleic Acid 3 mM,38%
same,"reduction in virus infectivity, in Combination with Phosphonc Acid (50-150 mM)",secondary agent 11-13 mM + Phosphonc Acid 50-150 mM,80%
same,"reduction in virus infectivity, in Combination with Sulfosuccinic Acid (10-32 mM)",secondary agent 11-13 mM + Sulfosuccinic Acid 10-32 mM,99%
"CCCCCCCCCCO[C@@H]1O[C@H](CO)[C@@H](O)[C@H](O)[C@H]1O [EcoSense 3000, Decyl Glucoside]","% Reduction, Secondary Antiviral Agent Alone",agent alone 8 mM,14%
same,"% Reduction, Secondary Antiviral Agent Alone",agent alone 23 mM,0%
same,"% Reduction, Secondary Antiviral Agent Alone",agent alone 69 mM,0%
same,"% Reduction, Secondary Antiviral Agent Alone",agent alone 207 mM,0%
same,"reduction in virus infectivity, in Combination with Maleic Acid (3 mM)",secondary agent 0.3 mM + Maleic Acid 3 mM,0%
same,"reduction in virus infectivity, in Combination with Maleic Acid (3 mM)",secondary agent 1 mM + Maleic Acid 3 mM,0%
same,"reduction in virus infectivity, in Combination with Maleic Acid (3 mM)",secondary agent 7 mM + Maleic Acid 3 mM,0%
same,"reduction in virus infectivity, in Combination with Maleic Acid (3 mM)",secondary agent 37 mM + Maleic Acid 3 mM,0%
N=C(N)N [Guanidine Hydrochloride],"% Reduction, Secondary Antiviral Agent Alone",agent alone 6 mM,0%
same,"% Reduction, Secondary Antiviral Agent Alone",agent alone 18 mM,0%
same,"% Reduction, Secondary Antiviral Agent Alone",agent alone 55 mM,0%
same,"% Reduction, Secondary Antiviral Agent Alone",agent alone 164 mM,0%
same,"reduction in virus infectivity, in Combination with Maleic Acid (3 mM)",[1],0%
same,"reduction in virus infectivity, in Combination with Phosphonc Acid (50-150 mM)",[2],40%
same,"reduction in virus infectivity, in Combination with Sulfosuccinic Acid (10-32 mM)",[3],10%
same,"reduction in virus infectivity, in Combination with Maleic Acid (3 mM)",secondary agent 10 mM + Maleic Acid 3 mM,0%
same,"reduction in virus infectivity, in Combination with Phosphonc Acid (50-150 mM)",secondary agent 10 mM + Phosphonc Acid 50-150 mM,34%
same,"reduction in virus infectivity, in Combination with Sulfosuccinic Acid (10-32 mM)",secondary agent 10 mM + Sulfosuccinic Acid 10-32 mM,12%
same,"reduction in virus infectivity, in Combination with Maleic Acid (3 mM)",secondary agent 29 mM + Maleic Acid 3 mM,0%
same,"reduction in virus infectivity, in Combination with Phosphonc Acid (50-150 mM)",secondary agent 29 mM + Phosphonc Acid 50-150 mM,34%
same,"reduction in virus infectivity, in Combination with Sulfosuccinic Acid (10-32 mM)",secondary agent 29 mM + Sulfosuccinic Acid 10-32 mM,1%
same,"reduction in virus infectivity, in Combination with Maleic Acid (3 mM)",secondary agent 86 mM + Maleic Acid 3 mM,0%
same,"reduction in virus infectivity, in Combination with Phosphonc Acid (50-150 mM)",secondary agent 86 mM + Phosphonc Acid 50-150 mM,46%
same,"reduction in virus infectivity, in Combination with Sulfosuccinic Acid (10-32 mM)",secondary agent 86 mM + Sulfosuccinic Acid 10-32 mM,0%
